Reference: patent publication US7582417B2, “Sequential reporter enzyme luminescence (SRL) methods and compositions for practicing the same” (The Board of Trustees of the Leland Stanford Junior …, priority 2006, dated 2009)

Experiments:
[1] = molecular target: T1, β-gal activity of implanted FLuc/LacZ cells (Escherichia coli, UniProt P00722); assay: Near-infrared fluorescent imaging of β-gal activity with DDAOG; assay type: in vivo, mouse; set-up: expressed in transfected cells; host or cells: C2C12 mouse myoblasts, retrovirally transduced (FLuc/LacZ cells); conditions: 1×10^6 cells, right vs left leg
Method: The near-infrared imaging probe DDAOG (Molecular Probes) was injected intravenously (0.5 mg of DDAOG in 100 μl of DMSO and PBS (1:1)). NIRF reflectance imaging was performed using an IVIS-200 imager (Xenogen) with a custom filter set (excitation: 615-645; emission: 680-720 nm) (Omega Optical). Images were continuously acquired over 45 min after substrate injection and the images showing optimal signal-to-noise ratios were chosen for comparison.

[2] = published value; cited from earlier work
[3] = molecular target: T2, somatostatin 2 receptor (SSTR2) (Homo sapiens, UniProt P30874); assay: In vivo luminescent imaging of somatostatin 2 receptor activation (SSTR2/Fluc cells in BALB/c nude mice, Lugal); conditions: after octreotide i.p.
T2 construct: expressed in transfected cells; host or cells: C2C12 myoblasts, retrovirally transduced; the in vivo cells also carry Ras and FLuc
Excerpt: All protocols were approved by the Administrative Panel on Laboratory Animal Care at Stanford University School of Medicine. BALB/c nude were obtained from the Stanford University in-house colony. C2C12 myoblasts were harvested and suspended in 0.5% BSA in PBS at a final concentration of 10^8 cells/ml for injection. 4×10^6 cells carrying the β2/arrestin β-gal/Ras/FLuc or the SSTR2/arrestin β-gal/Ras/FLuc constructs were subcutaneously into the back of mice (2 injections/mouse), and allowed to grow into small tumors over 7 to 14 days.
Imaging was carried out using a Xenogen-100 device as previously described. Briefly, the system is composed of a light-tight imaging chamber, a digital CCD camera colled by a cryogenic refrigeration unit and a computer system (Living Image™ 2.50 software, Xenogen, Alameda).
We engineered new cell lines carrying the SSTR2/arrestin-β-galactosidase construct by retroviral transduction with the Fluc and ras genes (SSTR2/Fluc).

[4] = molecular target: T1, β-gal activity of implanted FLuc/LacZ cells
Method: Imaging was performed using a Xenogen-100 device as previously described (Cao et al., supra). Briefly, the system is comprised of a light-tight imaging chamber, a cooled digital CCD camera with a cryogenic refrigeration unit and the appropriate computer system (Living Image™ 2.50 software, Xenogen, Alameda). […] C2C12 myoblasts were harvested and suspended in 0.5% BSA in PBS at a final concentration of 10^8 cells/ml for injection. For experiment shown in FIG. 1e, 10^6 cells expressing LacZ and FLuc (FLuc/LacZ cells) were injected into the right tibialis anterior muscle (TA) and 10^6 cells expressing FLuc only (FLuc cells) into the left TA of BALB/c nude mice. […] For experiment shown in FIGS. 2a and 2b, a range of cell numbers between 5×10^4 and 2×10^6 were injected subcutaneously in 10 different locations of the back of BALB/c nude mice.

[5] = molecular target: β-gal activity in FLuc/LacZ C2C12 cells (Escherichia coli, UniProt P00722)
Method: The parental MFG-IRES-lyt-2 construct was used to generate the lyt-2 expressing myoblasts. Retroviral transduction was performed using the ecotropic ΦNX packaging cell line (generous gift of GP Nolan). This line was transiently transfected with the proviral constructs using Fugene transfection reagent (Boehringer Mannheim). […] Polybrene was added to a final concentration of 8 μg/ml (Sigma) and cells were spun at 2,000 RPM in a Beckman GS-6 centrifuge. Cells transduced with the Luciferase-IRES-lyt-2 construct or the parental MFG-IRES-lyt-2 construct were stained with an anti-lyt-2 antibody conjugated to APC (BD Pharmingen). Cells were sorted by FACS on a Becton Dickinson flow cytometer with MoFlo electronics. […] For the in vitro cell studies, C2C12 cells were seeded in growth medium into a 384-well dish. […] The plate was read on a Tropix TR717 luminometer at room temperature with an integration time of 1 s/well. […] Cell lysates were prepared by aspirating the media and adding 15 ul of lysis buffer (1% Triton-X100, 50 mM Tris-HCl, 10 mM MgCl2, 10 mM DTT, 1 mM ATP, pH 7.5). For wells with intact cells, 15 ul of PBS was substituted for lysis buffer. The substrates were added at equivalent volumes to bring the reaction volume to 30 ul.

[6] = molecular target: T3, mouse angiotensin receptor 1 (AGTR1) (Mus musculus, UniProt P29754); assay: GPCR/arrestin β-gal complementation assay, AGTR1 cell line; assay type: cell-based
T3 construct: expressed in transfected cells; host or cells: C2C12 myoblasts, retrovirally transduced
T3 sequence (P29754 whole entry): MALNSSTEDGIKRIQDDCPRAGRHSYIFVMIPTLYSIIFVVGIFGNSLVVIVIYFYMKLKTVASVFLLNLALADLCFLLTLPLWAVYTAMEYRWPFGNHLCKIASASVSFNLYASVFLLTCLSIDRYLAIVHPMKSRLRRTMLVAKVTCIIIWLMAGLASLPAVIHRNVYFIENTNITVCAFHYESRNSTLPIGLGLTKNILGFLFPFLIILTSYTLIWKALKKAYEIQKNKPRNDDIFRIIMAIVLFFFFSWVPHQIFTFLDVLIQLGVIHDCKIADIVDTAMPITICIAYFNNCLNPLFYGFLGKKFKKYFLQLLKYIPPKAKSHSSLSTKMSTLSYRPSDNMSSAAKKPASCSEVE
T3 sequence (P32121 whole entry partner): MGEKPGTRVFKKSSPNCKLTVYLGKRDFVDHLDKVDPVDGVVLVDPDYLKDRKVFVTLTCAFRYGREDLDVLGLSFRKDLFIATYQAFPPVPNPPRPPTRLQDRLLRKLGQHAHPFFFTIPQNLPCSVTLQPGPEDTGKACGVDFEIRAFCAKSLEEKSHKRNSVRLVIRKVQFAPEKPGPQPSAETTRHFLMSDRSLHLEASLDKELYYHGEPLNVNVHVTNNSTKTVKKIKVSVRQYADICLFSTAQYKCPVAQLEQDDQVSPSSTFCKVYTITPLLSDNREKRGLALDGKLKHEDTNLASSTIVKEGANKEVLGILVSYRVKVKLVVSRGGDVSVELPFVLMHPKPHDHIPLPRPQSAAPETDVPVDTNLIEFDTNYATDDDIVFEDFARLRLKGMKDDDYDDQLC
Method: Cells expressing the GPCR-α* and β-arrestin2-ω fusions were seeded at 20,000 cells/well in a 96-well dish overnight. Ligand was added for 1 hour. Media is aspirated and 50 ul of lysis solution (buffer A) and substrate (Gal-screen) in a 25:1 ratio was added to each well. The plates were incubated for 60-90 min at room temperature before reading in a TR717 luminometer with an integration time of 1 second. EC50 values were calculated using non-linear regression with a variable slope sigmoidal dose response algorithm in Prism software (Graphpad).
To test the sensitivity of the GPCR/arrestin assay, each cell line was plated in a 96-well dish and treated for 60 minutes with escalating doses of the indicated agonist (FIG. 9B). β-gal activity was measured using a luminescent substrate (Tropix).

T1 sequence (P00722 whole entry): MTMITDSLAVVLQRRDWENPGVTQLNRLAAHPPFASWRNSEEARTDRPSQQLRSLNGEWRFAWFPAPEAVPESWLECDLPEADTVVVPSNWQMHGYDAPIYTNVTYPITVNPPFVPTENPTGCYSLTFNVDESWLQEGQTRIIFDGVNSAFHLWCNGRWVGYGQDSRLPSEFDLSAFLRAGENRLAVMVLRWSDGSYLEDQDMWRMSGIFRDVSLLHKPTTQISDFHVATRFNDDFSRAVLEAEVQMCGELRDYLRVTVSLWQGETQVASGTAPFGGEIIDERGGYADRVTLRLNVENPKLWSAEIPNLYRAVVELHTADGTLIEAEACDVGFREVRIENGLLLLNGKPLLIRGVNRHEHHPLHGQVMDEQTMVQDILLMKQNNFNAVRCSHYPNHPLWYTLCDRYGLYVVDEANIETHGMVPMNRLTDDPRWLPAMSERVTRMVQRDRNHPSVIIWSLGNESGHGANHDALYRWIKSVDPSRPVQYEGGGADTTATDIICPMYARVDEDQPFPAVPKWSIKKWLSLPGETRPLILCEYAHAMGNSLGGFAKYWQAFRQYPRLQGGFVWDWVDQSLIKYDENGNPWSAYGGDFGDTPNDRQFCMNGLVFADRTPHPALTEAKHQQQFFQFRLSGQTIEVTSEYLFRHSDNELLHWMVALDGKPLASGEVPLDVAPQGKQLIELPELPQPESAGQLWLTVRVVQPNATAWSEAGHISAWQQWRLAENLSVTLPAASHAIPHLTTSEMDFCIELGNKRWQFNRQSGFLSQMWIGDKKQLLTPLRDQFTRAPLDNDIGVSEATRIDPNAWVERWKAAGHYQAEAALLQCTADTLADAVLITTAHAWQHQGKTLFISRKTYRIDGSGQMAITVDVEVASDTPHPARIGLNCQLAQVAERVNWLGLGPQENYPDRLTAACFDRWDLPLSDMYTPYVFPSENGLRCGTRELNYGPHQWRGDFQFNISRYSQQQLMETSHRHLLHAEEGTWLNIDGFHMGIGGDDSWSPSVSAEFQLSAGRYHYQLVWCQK
Sequence of β-gal activity in FLuc/LacZ C2C12 cells (P00722 whole entry): as above
T2 sequence (P30874 whole entry): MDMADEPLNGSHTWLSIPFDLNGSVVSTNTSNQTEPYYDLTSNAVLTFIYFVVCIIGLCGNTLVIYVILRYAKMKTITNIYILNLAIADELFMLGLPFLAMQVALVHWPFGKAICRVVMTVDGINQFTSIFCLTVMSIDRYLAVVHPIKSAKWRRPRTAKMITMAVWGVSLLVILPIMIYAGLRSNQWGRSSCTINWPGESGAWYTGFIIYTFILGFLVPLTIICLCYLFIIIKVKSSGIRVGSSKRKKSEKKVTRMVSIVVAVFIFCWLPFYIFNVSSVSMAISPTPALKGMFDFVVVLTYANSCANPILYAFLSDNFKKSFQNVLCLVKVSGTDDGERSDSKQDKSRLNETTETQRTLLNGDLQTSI
T2 sequence (P32121 whole entry partner): as the sequence (P32121 whole entry partner) above

## CC1(C)C2=C(Cl)C(=O)C(Cl)=CC2=Nc2ccc(O[C@@H]3O[C@H](CO)[C@H](O)[C@H](O)[C@H]3O)cc21 [DDAOG, 7-hydroxy-9H-(1,3-dichloro-9,9-dimethylacridin-2-one) β-D-galactoside]
[1]
  signal-to-noise ratio, fluorescence imaging, leg muscles: 2.8 fold

## CC(C)NCC(O)c1ccc(O)c(O)c1 (stereo not drawn) [isoproterenol]
[2]
  serum half life: approx. 2 hours

## C[C@@H](O)[C@@H]1NC(=O)[C@H](CCCCN)NC(=O)[C@@H](Cc2c[nH]c3ccccc23)NC(=O)[C@H](Cc2ccccc2)NC(=O)[C@@H](NC(=O)[C@H](N)Cc2ccccc2)CSSC[C@@H](C(=O)N[C@H](CO)[C@@H](C)O)NC1=O [octreotide]
[3]
  time for luminescence to return to baseline: 24 h
[3]; listed as Octreotide
  time for luminescence to return to baseline: ≤ 24 h
[2]
  serum half life: approx. 6 hours

## D-luciferin-O-β-galactopyranoside [Lugal]
[4]; 1×10^6 cells per tibialis anterior, right vs left leg, i.p. Lugal
  bioluminescence signal of FLuc/LacZ cells relative to FLuc cells: 30-200 fold
[4]; 1×10^6 cells, right vs left leg
  signal-to-noise ratio, luminescence imaging, leg muscles: 429 fold
[4]; higher with Lugal
  signal-to-noise ratio of Lugal relative to DDAOG, deeper tissues (skeletal muscle): 150 fold
[5]; FLuc/LacZ C2C12 cells, 384-well dish, concentrations as low as
  Lugal concentration at which strong luminescent signals were generated: 10 µg/mL
[5]; cells expressing FLuc alone, only at the highest concentration
  Lugal concentration at which a measurable signal was generated without β-gal: 1000 µg/mL

## angiotensin (DRVYIHPF; Angiotensin-2; UniProt P01019 25-32, looked up) [AGTR1 agonist obtained from Sigma]
[6]
  EC50: in good agreement with radiolabeled ligand binding assays
[6]; 60 minutes agonist
  increase in β-galactosidase activity: greater than 15 fold
